{"source": "patent US9079868B2", "about": "“Selective glycosidase inhibitors and uses thereof” (Simon Fraser University, priority 2008, dated 2015)", "target": "O-GlcNAcase (Homo sapiens (Human), UniProt O60502)", "sequence (O60502 whole entry)": "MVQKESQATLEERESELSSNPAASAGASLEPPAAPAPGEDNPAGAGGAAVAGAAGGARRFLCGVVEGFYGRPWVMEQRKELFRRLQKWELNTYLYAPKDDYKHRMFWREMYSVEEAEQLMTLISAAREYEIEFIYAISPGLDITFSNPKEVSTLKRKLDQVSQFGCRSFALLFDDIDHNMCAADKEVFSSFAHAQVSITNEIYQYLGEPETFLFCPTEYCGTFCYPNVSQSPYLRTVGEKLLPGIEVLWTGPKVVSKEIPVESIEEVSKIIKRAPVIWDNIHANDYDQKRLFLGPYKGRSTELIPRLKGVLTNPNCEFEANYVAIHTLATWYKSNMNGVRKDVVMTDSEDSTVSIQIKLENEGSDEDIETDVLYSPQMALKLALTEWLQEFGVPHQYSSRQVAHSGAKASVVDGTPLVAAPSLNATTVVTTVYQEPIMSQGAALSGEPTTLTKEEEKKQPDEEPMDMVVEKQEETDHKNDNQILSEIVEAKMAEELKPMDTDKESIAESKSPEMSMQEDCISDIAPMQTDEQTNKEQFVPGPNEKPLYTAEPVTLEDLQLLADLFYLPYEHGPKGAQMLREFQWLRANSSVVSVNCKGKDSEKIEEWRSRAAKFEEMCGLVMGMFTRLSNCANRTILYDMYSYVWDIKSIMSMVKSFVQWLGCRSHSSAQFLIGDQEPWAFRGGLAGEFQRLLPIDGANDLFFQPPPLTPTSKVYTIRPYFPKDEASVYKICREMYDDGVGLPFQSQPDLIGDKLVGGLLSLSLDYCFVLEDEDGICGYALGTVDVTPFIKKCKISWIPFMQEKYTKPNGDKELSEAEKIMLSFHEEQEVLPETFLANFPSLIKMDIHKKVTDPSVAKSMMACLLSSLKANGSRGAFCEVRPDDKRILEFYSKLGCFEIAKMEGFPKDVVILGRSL", "experiment": "Determination of KI values for inhibition of O-GlcNAcase activity (pNP-GlcNAc substrate, Dixon plots)", "type": "biochemical", "details": "PBS pH 7.4, 0.5 mM pNP-GlcNAc, 37° C., linear regression of a Dixon plot", "experimental": "Assay for Determination of […] for Inhibition of O-GlcNAcase Activity\nExperimental Procedure for Kinetic Analyses:\nEnzymatic reactions are carried out in PBS buffer (pH 7.4) using pNP-GlcNAc as a substrate (0.5 mM) and monitored continuously at 37° C. at 400 nm using a Cary 3E UV-VIS spectrophotometer equipped with a Peltier temperature controller. Reactions are pre-heated in a 500 μL quartz cuvette for approximately 5 minutes followed by addition of 10 μL enzyme via syringe (final enzyme concentration 0.002 mg/mL). Reaction velocities are determined by linear regression of the linear region of the reaction progress curve between the first and third minutes. An inhibitor concentration range of ⅕ to 5 times K1 is used in each case. […] All K1 values are determined using linear regression of Dixon plots."}
{"compound": "CN(C)C1=N[C@@H]2[C@@H](O)[C@H](O)[C@@H](CO)[C@@H]2O1", "note": "[Compound 2, (3aR,4R,5R,6R,6aS)-2-(dimethylamino)-6-(hydroxymethyl)-4,5,6,6a-tetrahydro-3aH-cyclopenta[d]oxazole-4,5-diol]", "values": [{"measurement": "Ki", "result": 40, "unit": "µM"}]}
